Experimental data: publication PMC8242268, “Transcriptomic and Proteomic Analysis of Mannitol-metabolism-associated Genes in Saccharina japonica” (Genomics, Proteomics & Bioinformatics, 2020)

Tests used:
SjaM1PDH2 = molecular target: T1, SjaM1PDH2 (Saccharina japonica, UniProt A0A2Z4BWZ7); assay: F6P reduction kinetics, Lineweaver-Burk; type: biochemical; conditions: apparent; co-substrate NADH
T1 construct: codon-optimized synthetic gene, pET32a (EcoRI/NotI), E. coli BL21(DE3), His-resin purified
T1 sequence (A0A2Z4BWZ7 1-355): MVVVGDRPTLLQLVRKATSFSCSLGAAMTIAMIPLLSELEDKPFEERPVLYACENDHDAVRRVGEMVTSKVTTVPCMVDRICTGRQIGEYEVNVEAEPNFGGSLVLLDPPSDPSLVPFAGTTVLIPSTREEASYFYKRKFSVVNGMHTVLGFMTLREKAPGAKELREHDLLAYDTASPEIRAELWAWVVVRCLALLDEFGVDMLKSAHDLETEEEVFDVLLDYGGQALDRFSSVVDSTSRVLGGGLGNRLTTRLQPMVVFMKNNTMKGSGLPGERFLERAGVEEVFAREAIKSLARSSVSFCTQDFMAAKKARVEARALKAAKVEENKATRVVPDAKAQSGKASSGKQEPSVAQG

SjaM1Pase2 = molecular target: T2, SjaM1Pase2 (Saccharina japonica, UniProt A0A2Z4BXC0); assay: M1P phosphatase kinetics, Lineweaver-Burk; type: biochemical; conditions: apparent; 100 mM Tris-HCl buffer
T2 construct: codon-optimized synthetic gene, pGEX-6p-1 (EcoRI/NotI), E. coli BL21(DE3), GST-resin purified
T2 sequence (A0A2Z4BXC0 1-327): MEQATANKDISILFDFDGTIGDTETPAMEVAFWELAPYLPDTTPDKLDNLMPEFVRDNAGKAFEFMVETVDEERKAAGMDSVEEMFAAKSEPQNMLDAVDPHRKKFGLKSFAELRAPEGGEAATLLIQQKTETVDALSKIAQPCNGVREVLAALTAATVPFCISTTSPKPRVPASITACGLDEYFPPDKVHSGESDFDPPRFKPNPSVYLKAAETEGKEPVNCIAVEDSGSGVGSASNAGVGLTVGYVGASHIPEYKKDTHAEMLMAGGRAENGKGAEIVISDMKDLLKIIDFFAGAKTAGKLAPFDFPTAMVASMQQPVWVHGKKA

| SMILES | Km (SjaM1PDH2) [µM] | Km (SjaM1Pase2) [µM] |
| --- | --- | --- |
| O=P(O)(O)OC[C@H]1OC(O)(CO)[C@@H](O)[C@@H]1O (some centres unmarked) [F6P] | 2020 |  |
| O=P(O)(O)OC[C@@H](O)[C@@H](O)[C@H](O)[C@H](O)CO [M1P] |  | 20 |
